Here are results for two compounds from patent US11253589B2, “Modulation of the immune response” (priority 2007, dated 2022).

Each structure is given as a SMILES string.

For data set [1] the following is noted: in vivo; cited from earlier work.
The subject of data set [2] is MOG35-55-specific Treg and Teff. Put plainly: MOG35-55-specific Treg and Teff by MHC class II tetramer FACS. Type of data set: in vivo, mouse. The settings on record: Foxp3gfp mice, ITE 200 mg/mice intraperitoneal daily. How it is done:
To investigate the effect of AHR activation by ITE on the frequency of MOG35-55 specific Treg and effector T cells (Teff), Foxp3^gpf knock in mice were immunized with MOG35-55/CFA, treated daily with intreaperitoneal ITE ([…]) and MOG35-55-specific Treg (CD4^+ FoxP3:GFP^+) and Teff (CD4^+ FoxP3:GFP^−) were analyzed by FACS using recombinant MHC class II tetramers containing […] or the control peptide TMEV70-86.

A further data set has as its system mouse Foxp3 locus. Put plainly: Zebrafish microinjected with renilla-tagged mouse Foxp3 BAC. The format is in vivo. The settings on record: total zebrafish lysates six days after microinjection, increasing amounts of TCDD. How it is done:
A modified zebrafish based screening assay was established by microinjecting fertilized zebrafish eggs with a BAC construct encoding the complete mouse Foxp3 locus, with a renilla reporter inserted after the Foxp3 methionine start codon (ATG). Six days after microinjection, renilla activity was determined in total zebrafish lysates.

The subject of data set [3] is CD4+Foxp3:GFP- 2D2 T cells. Put plainly: In vivo conversion of transferred CD4+Foxp3:GFP- 2D2 T cells into Treg. The settings on record: recipients given 1 μg/mouse TCDD, immunized 2 days later with MOG35-55. How it is done: To investigate if new Treg could also be generated in vivo following TCDD administration, we transferred CD4^+Foxp3:GFP^− 2D2 T cells from CD90.2 donors into wild type CD90.1 recipients. CD4^+Foxp3:GFP^− 2D2 T cells express a MOG35-55-specific T cell receptor. The recipients were administered 1 μg/mouse TCDD and were immunized 2 days later with MOG35-55. CD4^+Foxp3:GFP^+ CD90.2 T cells (donor cells that underwent conversion into Treg upon treatment with TCDD) were then quantified by FACS.

The subject of another data set is CD4+CD25- T cells. Put plainly: CD4+CD25- T cells activated with antibodies to CD3 in the presence of TCDD. Type of data set: cell-based, mouse. The settings on record: incubation with TCDD. An excerpt:
To rule out any direct cytotoxic or pro-apoptotic effect of TCDD on effector T cells, purified mouse CD4^+CD25^− T cells were activated in vitro with antibodies to CD3 in the presence of TCDD.

Another data set has as its system CD4+ Foxp3+ Treg. Put plainly: CD4+Foxp3+ Treg levels in AHR-d mice. The format is in vivo. As to conditions: TCDD 1 μg/mouse. An excerpt: To confirm that the effects on EAE were mediated by the activation of AHR, we used C57BL/6 mice carrying the d allele of the ahr gene (AHR-d mice). This allele codes for a mutant AHR with a 10 fold reduction in its affinity for TCDD and other ligands (Okey et al., Mol Pharmacol. 35, 823-30 (1989)) due to mutations in its ligand binding sites.

With `COC(=O)c1csc(C(=O)c2c[nH]c3ccccc23)n1` [ITE, 2-(1′H-indole-3′-carbonyl)-thiazole-4-carboxylic acid methyl ester], in data set [1], the toxic effects result is “do not display the toxic effects”. In addition, in data set [2], the “frequency of MOG35-55-specific Teff” value was “decrease in the frequency” and the “frequency of MOG35-55-specific Treg” value was “concomitant increase in the frequency”.
Consider `Clc1cc2c(cc1Cl)Oc1cc(Cl)c(Cl)cc1O2` [TCDD, 2,3,7,8 tetrachlorodibenzo-p-dioxin], for which the “renilla luciferase activity (murine Foxp3 expression)” value with mouse Foxp3 locus was “increased in the presence of TCDD in a dose-dependent manner”. Besides, the “conversion of CD4+Foxp3:GFP- CD90.2 donor T cells into Treg cells” value in data set [3] was “significant”. Moreover, the “T cell apoptosis (annexin-FITC staining)” value with CD4+CD25- T cells (antibodies to CD3) is recorded as “did not increase T cell apoptosis”. Also, the proliferative response entry in the data set with CD4+CD25- T cells (antibodies to CD3, 72 hours) is given as “did not decrease the proliferative response”. In addition, in the data set on CD4+ Foxp3+ Treg, the “levels of CD4+ Foxp3+ Treg” value is “did not increase the levels”.
